Measured values taken from ChEMBL document CHEMBL1150752, “Inhibition of cow's milk xanthine oxidase by flavonoids” (J Nat Prod, 1988).

Molecular target: Xanthine dehydrogenase/oxidase (Bos taurus, UniProt P80457)
Assay: Inhibition of cow milk xanthine oxidase at 50 ug/mL
Settings: cattle

Sequence of Xanthine dehydrogenase/oxidase (P80457 whole entry): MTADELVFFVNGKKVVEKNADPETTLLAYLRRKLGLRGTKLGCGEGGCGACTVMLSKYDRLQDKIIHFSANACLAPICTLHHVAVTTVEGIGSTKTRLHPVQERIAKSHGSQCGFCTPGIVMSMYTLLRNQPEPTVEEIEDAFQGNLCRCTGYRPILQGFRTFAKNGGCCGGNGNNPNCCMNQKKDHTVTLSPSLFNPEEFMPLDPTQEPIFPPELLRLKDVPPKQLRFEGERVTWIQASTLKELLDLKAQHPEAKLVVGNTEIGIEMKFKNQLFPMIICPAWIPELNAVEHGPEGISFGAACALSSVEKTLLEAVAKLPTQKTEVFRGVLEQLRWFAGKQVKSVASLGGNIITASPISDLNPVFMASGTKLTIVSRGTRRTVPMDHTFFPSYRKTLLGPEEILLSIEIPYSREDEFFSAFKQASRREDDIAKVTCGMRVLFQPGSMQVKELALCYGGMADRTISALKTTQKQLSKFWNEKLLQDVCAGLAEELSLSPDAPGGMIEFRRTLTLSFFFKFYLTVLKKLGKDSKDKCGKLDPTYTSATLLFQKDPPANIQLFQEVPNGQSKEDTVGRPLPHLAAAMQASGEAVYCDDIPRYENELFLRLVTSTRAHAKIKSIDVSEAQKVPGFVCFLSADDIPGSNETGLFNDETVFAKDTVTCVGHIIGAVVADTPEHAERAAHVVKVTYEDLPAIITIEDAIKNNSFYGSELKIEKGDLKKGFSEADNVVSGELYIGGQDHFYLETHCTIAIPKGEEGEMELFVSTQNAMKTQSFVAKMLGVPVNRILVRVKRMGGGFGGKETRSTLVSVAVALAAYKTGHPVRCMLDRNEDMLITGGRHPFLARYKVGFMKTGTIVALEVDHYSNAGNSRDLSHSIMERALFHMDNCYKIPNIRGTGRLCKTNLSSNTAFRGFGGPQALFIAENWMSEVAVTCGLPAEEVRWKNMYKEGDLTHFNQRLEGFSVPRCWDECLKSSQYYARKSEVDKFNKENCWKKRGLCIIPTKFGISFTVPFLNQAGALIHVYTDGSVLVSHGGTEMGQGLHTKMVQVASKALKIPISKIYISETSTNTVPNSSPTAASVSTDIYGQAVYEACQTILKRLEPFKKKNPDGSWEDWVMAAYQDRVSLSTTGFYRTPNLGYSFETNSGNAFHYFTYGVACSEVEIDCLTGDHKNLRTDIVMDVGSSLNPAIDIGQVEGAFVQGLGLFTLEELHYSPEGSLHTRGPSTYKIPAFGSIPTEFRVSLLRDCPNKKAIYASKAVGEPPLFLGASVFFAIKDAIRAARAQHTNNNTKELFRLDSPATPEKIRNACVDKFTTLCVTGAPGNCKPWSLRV

Structure (SMILES) | inhibition at 50 µg/mL [%]
CC(=O)Oc1cc(OC(C)=O)c2c(=O)c(OC(C)=O)c(-c3ccc(OC(C)=O)c(OC(C)=O)c3)oc2c1 | 0
COc1ccc(-c2cc(=O)c3c(O)cc(O[C@@H]4O[C@H](CO[C@@H]5OC[C@@H](O)[C@@H](O)[C@@H]5O)[C@@H](O)[C@H](O)[C@H]4O)cc3o2)cc1O | 30.5
O=C(O[C@H]1[C@H](Oc2c(-c3ccc(O)c(O)c3)oc3cc(O)cc(O)c3c2=O)O[C@H](CO)[C@@H](O)[C@@H]1O)c1cc(O)c(O)c(O)c1 | 21
O=c1c(O)c(-c2ccc(O)cc2)oc2cc(O[C@@H]3O[C@H](CO)[C@@H](O)[C@H](O)[C@H]3O)cc(O)c12 | 0
O=c1cc(-c2ccc(O)c(O)c2)oc2cc(O[C@@H]3O[C@H](CO)[C@@H](O)[C@H](O)[C@H]3O)c([C@@H]3O[C@H](CO)[C@@H](O)[C@H](O)[C@H]3O)c(O)c12 | 0
CC(=O)Oc1cc(OC(C)=O)c2c(=O)c(OC(C)=O)c(-c3cc(OC(C)=O)c(OC(C)=O)c(OC(C)=O)c3)oc2c1 | 13.6
CC(=O)Oc1ccc(-c2cc(=O)c3c(OC(C)=O)c(OC(C)=O)c(OC(C)=O)cc3o2)cc1 | 0
COc1cc2oc(-c3ccc(O[C@@H]4O[C@H](CO)[C@@H](O)[C@H](O)[C@H]4O)c(O)c3)cc(=O)c2c(O)c1OC | 0
COc1cc(-c2cc(=O)c3c(O)c(OC)c(OC)cc3o2)ccc1O[C@@H]1O[C@H](CO)[C@@H](O)[C@H](O)[C@H]1O | 0
COc1ccc(-c2cc(=O)c3c(O)cc(O[C@@H]4O[C@H](CO)[C@@H](O)[C@H](O)[C@H]4O)cc3o2)cc1O | 28.9
COc1cc(-c2cc(=O)c3c(O)cc(O[C@H]4O[C@@H](C(=O)O)[C@H](O)[C@@H](O)[C@@H]4O)cc3o2)ccc1O | 0.3
CC(=O)Oc1cc(OC(C)=O)c2c(=O)cc(-c3ccc(OC(C)=O)c(OC(C)=O)c3)oc2c1 | 47.7
O=C1c2c(O)cc(O)cc2O[C@H](c2ccc(O)c(O)c2)[C@H]1O [(+)-TAXIFOLIN] | 17.8
COc1ccc(-c2cc(=O)c3c(O)cc(O[C@@H]4O[C@H](CO[C@@H]5O[C@@H](C)[C@H](O)[C@@H](O)[C@H]5O)[C@@H](O)[C@H](O)[C@H]4O)cc3o2)cc1 [ACACIIN] | 15.1
O=c1cc(-c2ccc(O)cc2)oc2cc(O[C@@H]3O[C@H](CO)[C@@H](O)[C@H](O)[C@H]3O)cc(O)c12 [APIGETRIN] | 13.9
C[C@@H]1O[C@@H](O[C@H]2C(=O)c3c(O)cc(O)cc3O[C@@H]2c2ccc(O)c(O)c2)[C@H](O)[C@H](O)[C@H]1O [ASTILBIN] | 0
O=c1c(O[C@@H]2O[C@@H](CO)[C@H](O)[C@H]2O)c(-c2ccc(O)c(O)c2)oc2cc(O)cc(O)c12 [AVICULARIN] | 30.8
COc1cc2oc(-c3ccccc3)cc(=O)c2c(OC)c1OC [BAICALEIN TRIMETHYL ETHER] | 22
COc1cc(-c2cc(=O)c3c(O)cc(O)cc3o2)ccc1O [CHRYSOERIOL] | 61.5
COc1cc(-c2cc(=O)c3c(O)c(OC)c(OC)cc3o2)ccc1O [CIRSILENEOL] | 1
COc1cc2oc(-c3ccc(O)c(O)c3)cc(=O)c2c(O)c1OC [CIRSILIOL] | 0.5
COc1cc2oc(-c3ccc(O[C@@H]4O[C@H](CO)[C@@H](O)[C@H](O)[C@H]4O)cc3)cc(=O)c2c(O)c1OC [CIRSIMARIN] | 12.2
COc1cc2oc(-c3ccc(O)cc3)cc(=O)c2c(O)c1OC [CIRSIMARITIN] | 0
O=c1c(-c2ccc(O)cc2)coc2cc(O)ccc12 [DAIDZEIN] | 0
O=c1c(-c2ccc(O)cc2)coc2cc(O[C@@H]3O[C@H](CO)[C@@H](O)[C@H](O)[C@H]3O)ccc12 [DAIDZIN] | 0
COc1ccc(-c2cc(=O)c3c(O)cc(O[C@@H]4O[C@H](CO[C@@H]5O[C@@H](C)[C@H](O)[C@@H](O)[C@H]5O)[C@@H](O)[C@H](O)[C@H]4O)cc3o2)cc1O [DIOSMIN] | 0
